Measurements reported in patent publication US20220226299A1 (NIPPON CHEMIPHAR CO., LTD., priority 2019, published 2022).
Structures can show the parent of a compound that is named as a salt.

Each molecule was assayed against T1, human Cav3.2 channels (Homo sapiens, UniProt O95180) (assay: T-type calcium blocking action: intracellular calcium (Fluo-4 AM fluorescence) in HEK293 cells steadily expressing human Cav3.2 channels). Settings: HEK293 cells expressing human Cav3.2; KCl-stimulated calcium influx, Fluo-4 fluorescence; Tables 1 to 3.
T1 construct: human Cav3.2 channel ORF (Open Reading Frame) gene; expressed in transfected cells; host or cells: HEK293 cells (ATCC No. CRL-1573), pcDNA3.1(+) plasmid
T1 sequence (O95180 whole entry): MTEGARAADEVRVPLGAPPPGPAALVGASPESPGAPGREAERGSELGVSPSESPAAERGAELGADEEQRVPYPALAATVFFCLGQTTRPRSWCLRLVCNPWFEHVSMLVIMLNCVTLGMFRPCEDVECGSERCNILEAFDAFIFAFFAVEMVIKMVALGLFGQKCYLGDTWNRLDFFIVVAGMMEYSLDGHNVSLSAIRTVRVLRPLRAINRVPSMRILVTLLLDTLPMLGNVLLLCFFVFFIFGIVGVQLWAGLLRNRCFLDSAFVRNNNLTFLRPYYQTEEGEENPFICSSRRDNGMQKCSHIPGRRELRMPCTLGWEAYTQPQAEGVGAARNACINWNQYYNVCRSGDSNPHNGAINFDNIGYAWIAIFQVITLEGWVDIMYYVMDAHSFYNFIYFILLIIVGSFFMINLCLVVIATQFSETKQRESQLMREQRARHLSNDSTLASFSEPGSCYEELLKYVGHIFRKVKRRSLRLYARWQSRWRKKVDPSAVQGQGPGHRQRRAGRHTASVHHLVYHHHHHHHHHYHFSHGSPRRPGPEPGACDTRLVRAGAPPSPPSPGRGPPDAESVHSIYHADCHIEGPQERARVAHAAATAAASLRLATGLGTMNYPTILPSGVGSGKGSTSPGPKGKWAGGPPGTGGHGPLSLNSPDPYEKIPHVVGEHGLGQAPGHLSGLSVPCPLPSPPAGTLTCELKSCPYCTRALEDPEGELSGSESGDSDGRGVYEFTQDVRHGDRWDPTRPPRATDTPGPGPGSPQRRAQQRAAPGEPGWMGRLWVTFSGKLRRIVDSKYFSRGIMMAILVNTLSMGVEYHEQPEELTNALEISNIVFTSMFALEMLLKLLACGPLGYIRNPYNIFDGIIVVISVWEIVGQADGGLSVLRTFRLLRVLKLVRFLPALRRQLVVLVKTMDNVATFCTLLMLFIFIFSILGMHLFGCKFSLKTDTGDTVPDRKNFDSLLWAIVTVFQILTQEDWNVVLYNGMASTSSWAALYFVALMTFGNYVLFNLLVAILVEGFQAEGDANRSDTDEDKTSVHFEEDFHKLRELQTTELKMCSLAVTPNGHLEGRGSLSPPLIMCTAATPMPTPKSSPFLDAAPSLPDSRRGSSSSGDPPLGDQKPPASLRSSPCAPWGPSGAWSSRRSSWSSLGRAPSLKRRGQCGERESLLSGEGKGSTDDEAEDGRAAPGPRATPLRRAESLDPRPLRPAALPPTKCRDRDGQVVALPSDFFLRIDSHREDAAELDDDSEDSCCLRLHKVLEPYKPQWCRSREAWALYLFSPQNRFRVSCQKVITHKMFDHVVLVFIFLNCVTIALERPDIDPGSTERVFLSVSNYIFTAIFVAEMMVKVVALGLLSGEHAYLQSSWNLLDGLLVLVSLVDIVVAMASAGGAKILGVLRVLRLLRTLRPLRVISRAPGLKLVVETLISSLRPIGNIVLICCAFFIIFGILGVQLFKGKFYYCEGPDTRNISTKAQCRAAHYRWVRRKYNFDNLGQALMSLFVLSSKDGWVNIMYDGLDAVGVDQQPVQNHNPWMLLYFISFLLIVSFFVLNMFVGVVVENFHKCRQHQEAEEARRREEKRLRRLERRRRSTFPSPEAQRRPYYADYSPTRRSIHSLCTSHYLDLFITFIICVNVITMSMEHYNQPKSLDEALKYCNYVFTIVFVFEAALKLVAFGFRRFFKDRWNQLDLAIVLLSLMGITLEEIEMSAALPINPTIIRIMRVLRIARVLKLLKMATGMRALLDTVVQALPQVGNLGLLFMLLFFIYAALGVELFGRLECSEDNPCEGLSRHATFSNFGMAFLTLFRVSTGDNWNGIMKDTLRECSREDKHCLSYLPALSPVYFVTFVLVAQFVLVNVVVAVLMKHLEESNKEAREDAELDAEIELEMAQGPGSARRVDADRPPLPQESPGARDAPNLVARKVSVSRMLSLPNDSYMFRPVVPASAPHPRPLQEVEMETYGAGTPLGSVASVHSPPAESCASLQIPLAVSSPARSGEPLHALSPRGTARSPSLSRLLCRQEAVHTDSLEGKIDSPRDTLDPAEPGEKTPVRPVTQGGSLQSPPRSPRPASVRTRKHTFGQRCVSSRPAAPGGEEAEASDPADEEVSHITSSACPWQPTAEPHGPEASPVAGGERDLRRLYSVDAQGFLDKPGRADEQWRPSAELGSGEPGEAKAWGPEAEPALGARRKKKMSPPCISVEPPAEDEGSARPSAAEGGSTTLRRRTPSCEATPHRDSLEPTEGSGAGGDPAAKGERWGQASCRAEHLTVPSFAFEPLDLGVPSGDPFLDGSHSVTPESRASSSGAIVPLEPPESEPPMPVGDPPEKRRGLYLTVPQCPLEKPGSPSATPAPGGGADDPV
Assay type: cell-based
Summary of the method: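 Fluo-4 AM-loaded stable HEK293 cells were preincubated 15 min at RT with compound (0.1% DMSO final) in choline-based buffer (pH 7.3). Gramicidin was added, then KCl-induced calcium influx was read at 485/510 nm for 10 s. Percent block came from peak rise over baseline, and IC50 from log-concentration plots.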
CC(C)c1ccc(CC(=O)NC2CN(c3cncc(C(F)(F)F)c3)C2)cc1 [Example 117, 2-(4-Isopropylphenyl)-N-(1-(5-(trifluoromethyl)pyridin-3-yl)azetidin-3-yl)acetamide] showed an IC50 of 0.071 µM. With CC(C)c1ccc(CC(=O)NC2CN(c3ccc(C(F)(F)F)nc3)C2)cc1 [Example 118, 2-(4-Isopropylphenyl)-N-(1-(6-(trifluoromethyl)pyridin-3-yl)azetidin-3-yl)acetamide] the IC50 was 2.1 µM. Work on O=C(Cc1cc(Cl)cc(Cl)c1)N[C@@H]1CCN(c2cncc(C(F)(F)F)c2)C1 [Example 119, (R)-2-(3,5-dichlorophenyl)-N-(1-(5-(trifluoromethyl)pyridin-3-yl)pyrrolidin-3-yl)acetamide] yielded an IC50 of 2.3 µM. In the case of O=C(Cc1cc(F)cc(Cl)c1)N[C@@H]1CCN(c2cncc(C(F)(F)F)c2)C1 [Example 120, (R)-2-(3-chloro-5-fluorophenyl)-N-(1-(5-(trifluoromethyl)pyridin-3-yl)pyrrolidin-3-yl)acetamide], the IC50 is reported as 0.82 µM. O=C(Cc1ccc(C2CC2)cc1)N[C@@H]1CCN(c2ccc(C(F)(F)F)nc2)C1 [Example 121, (R)-2-(4-cyclopropylphenyl)-N-(1-(6-(trifluoromethyl)pyridin-3-yl)pyrrolidin-3-yl)acetamide] showed an IC50 of 0.12 µM. Work on CC(C)c1ccc(CC(=O)N[C@@H]2CCN(c3ccc(C(F)(F)F)s3)C2)cc1 [Example 122, (R)-2-(4-isopropylphenyl)-N-(1-(5-(trifluoromethyl)thiophen-2-yl)pyrrolidin-3-yl)acetamide] yielded an IC50 of 1.5 µM. O=C(Cc1ccc(C(F)(F)F)cc1)N[C@@H]1CCN(c2cncc(C(F)(F)F)c2)C1 [Example 123, (R)-2-(4-(trifluoromethyl)phenyl)-N-(1-(5-(trifluoromethyl)pyridin-3-yl)pyrrolidin-3-yl)acetamide] was tested, and the IC50 was 0.044 µM. Work on O=C(Cc1ccc2cc[nH]c2c1)N[C@@H]1CCN(c2cncc(C(F)(F)F)c2)C1 [Example 124, (R)-2-(1H-indol-6-yl)-N-(1-(5-(trifluoromethyl)pyridin-3-yl)pyrrolidin-3-yl)acetamide] yielded an IC50 of 0.062 µM. O=C(Cc1ccc(C2CC2)cc1)N[C@@H]1CCN(c2cncc(OCC(F)(F)F)c2)C1 [Example 126, (R)-2-(4-cyclopropylphenyl)-N-(1-(5-(2,2,2-trifluoroethoxy)pyridin-3-yl)pyrrolidin-3-yl)acetamide] showed an IC50 of 0.83 µM. For O=C(Cc1ccc(C2CC2)cc1)N[C@@H]1CCN(c2cc(OCC(F)(F)F)ccn2)C1 [Example 127, (R)-2-(4-cyclopropylphenyl)-N-(1-(4-(2,2,2-trifluoroethoxy)pyridin-2-yl)pyrrolidin-3-yl)acetamide], the IC50 was 1.1 µM. O=C(Cc1ccc(C2CC2)cc1)N[C@@H]1CCCN(c2cncc(C(F)(F)F)c2)C1 [Example 129, (R)-2-(4-cyclopropylphenyl)-N-(1-(5-(trifluoromethyl)pyridin-3-yl)piperidin-3-yl)acetamide] was tested, and the IC50 was 0.55 µM. Molecule CC(C)(O)c1ccc(CC(=O)N[C@@H]2CCN(c3cncc(C(F)(F)F)c3)C2)cc1 [Example 131, (R)-2-(4-(2-hydroxypropan-2-yl)phenyl)-N-(1-(5-(trifluoromethyl)pyridin-3-yl)pyrrolidin-3-yl)acetamide] has an IC50 of 0.2 µM. In the case of Cc1nccnc1-c1ccc(CC(=O)N[C@@H]2CCN(c3cncc(C(F)(F)F)c3)C2)cc1 [Example 132, (R)-2-(4-(3-methylpyrazin-2-yl)phenyl)-N-(1-(5-(trifluoromethyl)pyridin-3-yl)pyrrolidin-3-yl)acetamide], the IC50 is reported as 0.19 µM. In the case of Cc1ncoc1-c1ccc(CC(=O)N[C@@H]2CCN(c3cncc(C(F)(F)F)c3)C2)cc1 [Example 133, (R)-2-(4-(4-methyloxazol-5-yl)phenyl)-N-(1-(5-(trifluoromethyl)pyridin-3-yl)pyrrolidin-3-yl)acetamide], the IC50 is reported as 0.055 µM. O=C(Cc1ccc(C2CC2)cc1)N[C@@H]1CCN(c2cc(C(F)(F)F)c[n+]([O-])c2)C1 [Example 134A, (R)-3-(3-(2-(4-cyclopropylphenyl)acetamido)pyrrolidin-1-yl)-5-(trifluoromethyl)pyridine 1-oxide] showed an IC50 of 0.93 µM. With O=C(Cc1ccc(C2CC2)cc1)N[C@@H]1CC[N+]([O-])(c2cncc(C(F)(F)F)c2)C1 (stereo partly drawn) [Example 134B, (3R)-3-(2-(4-cyclopropylphenyl)acetamido)-1-(5-(trifluoromethyl)pyridin-3-yl)pyrrolidine 1-oxide] the IC50 was 1 µM. Work on CC(C)(C(=O)N[C@@H]1CCN(c2cncc(C(F)(F)F)c2)C1)c1ccc(C2CC2)cc1 [Example 135, (R)-2-(4-cyclopropylphenyl)-2-methyl-N-(1-(5-(trifluoromethyl)pyridin-3-yl)pyrrolidin-3-yl)propanamide] yielded an IC50 of 0.23 µM. O=C(Cc1ccc(C2CC2)cc1)N[C@@H]1CCN(c2cc(F)cc(C(F)(F)F)c2)C1 [Example 136, (R)-2-(4-cyclopropylphenyl)-N-(1-(3-fluoro-5-(trifluoromethyl)phenyl)pyrrolidin-3-yl)acetamide] was tested, and the IC50 was 1.5 µM. In the case of CN(C)C(C(=O)N[C@@H]1CCN(c2cncc(C(F)(F)F)c2)C1)c1ccc(C2CC2)cc1 (stereo partly drawn) [Example 138, 2-(4-cyclopropylphenyl)-2-(dimethylamino)-N—((R)-1-(5-(trifluoromethyl)pyridin-3-yl)pyrrolidin-3-yl)acetamide hydrochloride], the IC50 is reported as 0.69 µM. With Cn1ccc2cc(CC(=O)N[C@@H]3CCN(c4cncc(C(F)(F)F)c4)C3)ccc21 [Example 139, (R)-2-(1-methyl-1H-indol-5-yl)-N-(1-(5-(trifluoromethyl)pyridin-3-yl)pyrrolidin-3-yl)acetamide] the IC50 was 0.0054 µM. In the case of O=C(Cc1ccc(C(F)(F)F)cc1C(F)(F)F)N[C@@H]1CCN(c2cncc(C(F)(F)F)c2)C1 [Example 140, (R)-2-(2,4-bis(trifluoromethyl)phenyl)-N-(1-(5-(trifluoromethyl)pyridin-3-yl)pyrrolidin-3-yl)acetamide], the IC50 is reported as 1.1 µM. O=C(Cc1ccc(C(F)(F)F)cc1F)N[C@@H]1CCN(c2cncc(C(F)(F)F)c2)C1 [Example 141, (R)-2-(2-fluoro-4-(trifluoromethyl)phenyl)-N-(1-(5-(trifluoromethyl)pyridin-3-yl)pyrrolidin-3-yl)acetamide] showed an IC50 of 0.18 µM. Cn1ncc2cc(CC(=O)N[C@@H]3CCN(c4cncc(C(F)(F)F)c4)C3)ccc21 [Example 142, (R)-2-(1-methyl-1H-indazol-5-yl)-N-(1-(5-(trifluoromethyl)pyridin-3-yl)pyrrolidin-3-yl)acetamide] gave an IC50 of 0.0094 µM. Cn1ncc2cc(CC(=O)N[C@@H]3CCN(c4nc(C(F)(F)F)cs4)C3)ccc21 [Example 143, (R)-2-(1-methyl-1H-indazol-5-yl)-N-(1-(4-(trifluoromethyl)thiazol-2-yl)pyrrolidin-3-yl)acetamide] gave an IC50 of 0.12 µM. CC1(C)CN(c2ccc(CC(=O)N[C@@H]3CCN(c4cncc(C(F)(F)F)c4)C3)cc2)CCO1 [Example 145, (R)-2-(4-(2,2-dimethylmorpholino)phenyl)-N-(1-(5-(trifluoromethyl)pyridin-3-yl)pyrrolidin-3-yl)acetamide] showed an IC50 of 0.13 µM. Molecule O=C(Cc1ccc(-n2cccn2)cc1)N[C@@H]1CCN(c2cncc(C(F)(F)F)c2)C1 [Example 146, (R)-2-(4-(1H-pyrazol-1-yl)phenyl)-N-(1-(5-(trifluoromethyl)pyridin-3-yl)pyrrolidin-3-yl)acetamide] has an IC50 of 0.023 µM.
